Assay results taken from patent publication US20220113299A1, “METHOD OF DYNAMICS ANALYSIS FOR COMPOUND IN CELL” (Hitachi High-Tech Corporation, priority 2019, published 2022).

Test system: hepatocytes
Test: kinetic analysis of compound efflux in cultured hepatocytes (Test Sections 1 to 3, fluorescence measurement)
Format: in vitro ADME, rat
Conditions: 30 minutes; for ratio of the amount of compound excreted into the bile duct to the totality of compound taken up into the cells (BiRD): (B1-B2)/(C1+C2), EGTA disrupted vs maintained system, 37° C.; for ratio of the amount of compound excreted into the bile duct to the totality of compound taken up into the cells (BiRD) / ratio of the amount of compound excreted via transporter to the amount of compound excreted basolaterally (RexEMTP): pattern 1; for ratio of the amount of compound excreted via transporter to the amount of compound excreted basolaterally (RexEMTP): (B2-B3)/B2, cultured hepatocytes, 37° C. vs 4° C.; for Sup fraction (fraction of the first basolateral efflux), index for tendency to remain or not to remain in the cells: pattern 2: sum of Steps 4, 5 and 6 = 100%, Step 4, 37° C., in %
Experimental: Hepatocytes were prepared by in-situ collagenase perfusion method. The details are as follows. A rat (5-6 week-old) is anesthetized with pentobarbital and undergoes laparotomy, followed by insertion of a catheter into the portal vein and injection of a preperfusion solution (a Ca^2+ and Mg^2+ free Hanks' solution containing glycol ether diaminetetraacetic acid (EGTA)). After checking that blood is sufficiently removed from the liver, the perfusion is stopped. Perfusion is performed with the perfusate being changed to a collagenase solution. In this embodiment, the perfusion operates with a Hanks' solution containing 0.05% collagenase, but the collagenase solution is not limited to this. After checking that the tissue between the cells has been digested by collagenase, the perfusion is stopped. The liver is excised, sliced in a cooled Hanks' solution, and separated into cells by pipetting. Damaged hepatocytes are removed by centrifugation at 500 G for 5 minutes with an isotonic Percoll solution. The viability of the resulting hepatocytes is determined by the trypan blue-exclusion test. Hepatocytes having a viability of 85% or more are used for culture. Here, hepatocytes having a viability of 85% or more are used for culture, but such culture is not necessarily limited to the condition. In addition, the preparation of hepatocytes is not necessarily limited to that by in situ collagenase perfusion method. The hepatocytes to be used are not limited to those derived from a rat, and the strain of rat is not limited. This embodiment employs hepatocytes, but cells are not limited to this.
(3) Cells prepared by a procedure as above are suspended in a medium. The hepatocytes are suspended at a density of 5×10^5 cells/mL in the medium and plated onto a commercially available culture dish coated with collagen. The density upon plating, the medium, and the culture plate 001 are not limited. The culture plate is illustrated in FIG. 7. A 24-well culture plate having 24 culture regions (wells, 002) is here illustrated, but the culture plate is not limited to this, and any of containers in other shapes may be used as long as it can contain predetermined cells. After plating, culture is started under conditions of 5% CO2 and 37° C. using a CO2 incubator. After 18 hours or more, the first medium change is performed. This embodiment employs a FCS-medium, which is a medium resulting from removal of FCS from the medium (10% FCS+) and supplementation with Matrigel, as the medium to be used for culture 18 hours after the plating. However, the medium can be any medium. After this, medium change with the medium (FCS−) is performed every 24 hours. As described later, testing is performed under three different conditions in Step 5 (Test Sections 1, 2, and 3; described in detail in Step 5), three independent culture plates under the same conditions are prepared at this point. In Steps 0 to 4 and Step 5, the same testing operations are performed in all the three test sections.
The culture supernatant of the cells cultured in Step 0 for 4 days is removed, and 400 μL of Hanks' solution is added as a buffer. The cells are incubated at 37° C. for 10 minutes (FIG. 2, Step 1). The type and amount of buffer are not limited.
The buffer is removed, and then 200 μL of […] carboxydichlorofluorescein (CDF; a fluorescent reagent) is fed to the well. The plate is incubated at 37° C. for 30 minutes and then maintained at 4° C. for 5 minutes (FIG. 2, Step 2). The type, concentration, and amount of the reagent are not limited. CDF emits fluorescence and can therefore be easily quantified as a model reagent with a plate reader. The amount of administration, 200 μL, was chosen so that the cells as a whole in the well would be immersed in the reagent. The concentration of CDF may be a concentration conventionally used for a fluorescence assay of cells. This concentration is preferably applied also as an amount of the reagent for the detection with a plate reader. […]

Row | ratio of the amount of compound excreted into the bile duct to the totality of compound taken up into the cells (BiRD) | ratio of the amount of compound excreted via transporter to the amount of compound excreted basolaterally (RexEMTP) | Sup fraction (fraction of the first basolateral efflux), index for tendency to remain or not to remain in the cells | Substance
1 | 4.92 | 52.52 | 39.29 | Rhodamine 123
2 | 18.58 | 41.08 | 70.82 | carboxydichlorofluorescein [CDF]
